Reference: patent US20110152249A1, “EVALUATING CENTRAL NERVOUS SYSTEM” (THE GENERAL HOSPITAL CORPORATION, priority 2004, published 2011)
Like-named read-outs stand apart in the source and are kept apart here.

Columns and labels:
patient = assay: Medication history of a patient with facial burning and numbness following trigeminal rhizotomy; format: in vivo, human; details: single patient; facial burning and numbness after rhizotomy for trigeminal neuralgia
Method: In a similar manner as that described above for a healthy volunteer, we examined fMRI activation in a patient who had facial burning and numbness following trigeminal rhizotomy one year previously for trigeminal neuralgia. Medications, including gabapentin and tegretol, had been unhelpful. Careful questioning and psychophysical evaluation was performed. […] They also had decreased warm and cold sensation on the affected side vs. the intact side. They underwent functional neuroimaging for thermal stimuli applied to the V2 and V3 distributions on the right and left. FIGS. 3A-3E show the results of cortical activation from this patient. There was a decrease in activation to a 45° C. stimulus applied to the affected area and an apparent increase in signal for the same stimulus applied to the ipsilateral V3 distribution.

opioid naïve individuals = assay: fMRI response to morphine in opioid naïve individuals; format: in vivo, human
Description: Some of these have an oppositely valenced signal to that observed for aversive painful stimuli. […] This observation is in counter distinction to that observed for cortical activation by painful stimuli (see above).

healthy human volunteers = test system: healthy human volunteers
Description: We also investigated the effects of the general anesthetic agent propofol on cerebral structures involved in the processing of vibrotactile information. Using positron emission tomography (PET) and the H(2)(15)O bolus technique, we measured regional distribution of cerebral blood flow (CBF) in eight healthy human volunteers. They were scanned under five different levels of propofol anesthesia. Using a computer-controlled infusion, the following plasma levels of propofol were targeted: Level W (Waking, 0 microg/ml), Level 1 (0.5 microg/ml), Level 2 (1.5 microg/ml), Level 3 (3.5 microg/ml), and Level R (Recovery). At each level of anesthesia, two 3-min scans were acquired with vibrotactile stimulation of the right forearm either on or off. The level of consciousness was evaluated before each scan by the response of the subject to a verbal command.

NCC1(CC(=O)O)CCCCC1 [gabapentin]
clinical benefit of medication (patient): unhelpful

CN1CC[C@]23c4c5ccc(O)c4O[C@H]2[C@@H](O)C=C[C@H]3[C@H]1C5 [morphine]
fMRI activation in subcortical structures (opioid naïve individuals): activation in deep subcortical structures including those involved in reward | fMRI signal in the SI cortex (opioid naïve individuals; low-dose morphine): decrease in signal in SI

CC(C)c1cccc(C(C)C)c1O [propofol]
level of consciousness (healthy human volunteers; Level 1, target plasma 0.5 microg/ml): slightly drowsy | vibration-induced increases in rCBF in the primary and secondary somatosensory cortex (healthy human volunteers; Level 1 through 3 (0.5-3.5 microg/ml target plasma), vibrotactile stimulation of right forearm): suppressed vibration-induced increases in rCBF | level of consciousness (healthy human volunteers; Level 2, target plasma 1.5 microg/ml): slurred speech and slow response | level of consciousness (healthy human volunteers; Level 3, target plasma 3.5 microg/ml): not responding at all | thalamic rCBF response to vibrotactile stimulation (healthy human volunteers; Level 3 = 3.5 microg/ml target plasma, volunteers lost consciousness): abolished only at Level 3 | rCBF in the thalamus and in visual, parietal, and prefrontal cortical regions (healthy human volunteers; during anesthesia, target plasma levels 0.5, 1.5, 3.5 microg/ml): reduced in a dose-dependent manner rCBF

NC(=O)N1c2ccccc2C=Cc2ccccc21 [tegretol]
clinical benefit of medication (patient): unhelpful
